The term IC50 denotes the point on the concentration scale where inhibition reaches its midpoint. Usually inhibition stands for how much of the control response was suppressed.

Consider seven molecules from ChEMBL document CHEMBL3860094, “Synthesis, structure determination, and biological evaluation of phenylsulfonyl hydrazide derivatives as potential anti-inflammatory agents” (Bioorg Med Chem Lett, 2016).

Series [1] is described as follows: Metabolic stability in mouse liver microsomes assessed as compound remaining after 30 mins. In kind it is ADME. Conditions: read-out: Stability. (In general: Liver microsomes are a subcellular fraction often used to study metabolism.)
Series [2] in a line: Metabolic stability in dog liver microsomes assessed as compound remaining after 30 mins. In kind it is ADME, Canis lupus familiaris. The note with it: read-out: Stability.
A further series has as its target T1, Prostaglandin E synthase (Mus musculus, UniProt Q9JM51).
T1 sequence (Q9JM51 whole entry): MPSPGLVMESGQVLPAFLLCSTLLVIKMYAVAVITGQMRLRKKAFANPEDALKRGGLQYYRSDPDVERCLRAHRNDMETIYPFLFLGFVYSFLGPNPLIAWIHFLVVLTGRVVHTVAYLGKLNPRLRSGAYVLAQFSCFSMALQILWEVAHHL
The series can be described thus: Inhibition of mPGES-1 in mouse RAW264.7 cells assessed as reduction in LPS-induced PGE2 production after 24 hrs. In kind it is cell-based.

Series [3] deals with T2, Prostaglandin G/H synthase 1 (Ovis aries, UniProt P05979).
T2 sequence (P05979 whole entry): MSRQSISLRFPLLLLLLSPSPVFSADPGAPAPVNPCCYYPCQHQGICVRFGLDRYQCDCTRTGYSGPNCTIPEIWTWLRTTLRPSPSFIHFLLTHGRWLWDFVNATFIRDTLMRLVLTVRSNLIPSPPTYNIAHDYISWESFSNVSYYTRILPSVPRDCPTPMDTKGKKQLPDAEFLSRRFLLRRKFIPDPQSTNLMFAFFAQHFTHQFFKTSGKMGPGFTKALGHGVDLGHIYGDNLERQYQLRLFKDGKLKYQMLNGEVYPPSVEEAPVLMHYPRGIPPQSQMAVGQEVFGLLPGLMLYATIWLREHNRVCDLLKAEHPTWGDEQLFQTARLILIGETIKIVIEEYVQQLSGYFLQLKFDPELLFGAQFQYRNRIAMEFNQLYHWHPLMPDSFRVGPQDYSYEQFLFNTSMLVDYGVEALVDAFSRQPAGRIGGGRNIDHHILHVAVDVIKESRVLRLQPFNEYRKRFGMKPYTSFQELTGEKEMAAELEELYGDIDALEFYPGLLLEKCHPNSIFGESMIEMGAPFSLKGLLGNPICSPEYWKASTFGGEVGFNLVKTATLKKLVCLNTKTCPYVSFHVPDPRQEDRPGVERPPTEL
Description: Inhibition of ovine COX1 by enzyme immunoassay.

For series [4], the target named is T3, Prostaglandin G/H synthase 2 (Homo sapiens, UniProt P35354).
T3 sequence (P35354 whole entry): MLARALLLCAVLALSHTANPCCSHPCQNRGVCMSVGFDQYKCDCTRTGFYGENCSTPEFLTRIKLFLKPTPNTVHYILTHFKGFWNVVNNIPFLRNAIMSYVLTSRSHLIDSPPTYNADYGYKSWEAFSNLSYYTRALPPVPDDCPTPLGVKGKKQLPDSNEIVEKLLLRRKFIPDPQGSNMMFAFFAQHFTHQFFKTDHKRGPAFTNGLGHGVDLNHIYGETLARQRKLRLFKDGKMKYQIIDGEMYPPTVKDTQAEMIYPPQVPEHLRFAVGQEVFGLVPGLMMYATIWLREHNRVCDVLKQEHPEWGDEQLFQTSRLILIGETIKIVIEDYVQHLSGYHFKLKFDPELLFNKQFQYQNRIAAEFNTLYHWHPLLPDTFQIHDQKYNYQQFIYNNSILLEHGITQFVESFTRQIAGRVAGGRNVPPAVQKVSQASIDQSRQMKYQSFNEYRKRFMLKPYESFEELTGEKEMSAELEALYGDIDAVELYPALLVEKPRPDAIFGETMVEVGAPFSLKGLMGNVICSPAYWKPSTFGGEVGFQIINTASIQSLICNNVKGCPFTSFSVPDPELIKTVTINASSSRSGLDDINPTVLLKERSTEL
The series can be described thus: Inhibition of recombinant human COX2 by enzyme immunoassay.

Series [5] concerns the target T4, Prostaglandin E synthase (Mus musculus) (UniProt Q9JM51).
T4 sequence (whole entry): T1 sequence (Q9JM51 whole entry)
The series can be described thus: Inhibition of mPGES-1 in mouse RAW264.7 cells assessed as reduction in LPS-induced PGE2 production at 1 uM after 24 hrs relative to control. Type of series: cell-based.

Series [6] in a line: Metabolic stability in rat liver microsomes assessed as compound remaining after 30 mins. Type of series: ADME. Conditions: read-out: Stability.
The species named for the next series is Mus musculus. The series can be described thus: Cytotoxicity against LPS-stimulated mouse RAW264.7 cells assessed as concentration required for reduction in cell viability after 24 hrs by MTT assay. Type of series: toxicity, cell-based. The note with it: raw264.7, 24 h. On the technique in general: Tetrazolium dyes change colour on reduction, which living cells bring about.

Series [7] can be described thus: Metabolic stability in human liver microsomes assessed as compound remaining after 30 mins. Type of series: ADME. Conditions: read-out: Stability.
Series [8] addresses T4, Prostaglandin E synthase (Mus musculus). Description: Inhibition of mPGES-1 in mouse RAW264.7 cells assessed as reduction in LPS-induced PGE2 production at 3 uM after 24 hrs relative to control. In kind it is cell-based.
Series [9] shares this target. Description: Inhibition of mPGES-1 in mouse RAW264.7 cells assessed as reduction in LPS-induced PGE2 production at 10 uM after 24 hrs relative to control. Type of series: cell-based.

Take `COc1ccc(S(=O)(=O)N(Nc2ccccc2)C(=O)Oc2ccc(OCc3ccccc3)cc2)cc1`: the remaining at 0.5 h is 42.2% in [1], 48.5% in series [2], 16.3% in [6] and 66.6% in [7]. Further, the IC50 at Prostaglandin E synthase was 60 nM; in [3], greater than 1000 nM; in series [4], greater than 1000 nM. The inhibition in series [5] is 84%. Also, the Activity in the series listed under Mus musculus was greater than 10 µM.

With `O=C(Oc1ccc2c(c1)CCC2)N(NS(=O)(=O)c1ccc(Cl)cc1)c1ccccc1`, the 50% inhibitory concentration (IC50) is 790 nM on Prostaglandin E synthase, greater than 1000 nM in [3] and greater than 1000 nM in series [4]. Also, the inhibition in [5] was 73%. Moreover, the Activity in the series filed under Mus musculus is greater than 10 µM.

Consider `CS(=O)(=O)Nc1ccc([N+](=O)[O-])cc1OC1CCCCC1` [NS-398], for which the IC50 at Prostaglandin E synthase was determined as 7 nM. Further, the inhibition in series [8] was 86%.

As to `O=C(Oc1ccc2c(c1)CCC2)N(Nc1ccccc1)S(=O)(=O)c1ccc(Cl)cc1`, the half-inhibitory concentration (IC50) at Prostaglandin E synthase is 550 nM; in series [3] it was greater than 1000 nM; in [4], greater than 1000 nM. Besides, the inhibition in series [5] is 75%. Further, the Activity in the series filed under Mus musculus was greater than 10 µM.

`COc1ccc(S(=O)(=O)NN(C(=O)Oc2ccccc2OC)c2ccccc2)cc1`: the inhibition in series [9] came to 18%; in series [5] it was 0%. Also, the IC50 on Prostaglandin E synthase was greater than 10000 nM. Moreover, the Activity in the series listed under Mus musculus was greater than 10 µM.

For the molecule `COc1ccc(CCN(C)CCCC(C#N)(c2ccc(OC)c(OC)c2)C(C)C)cc1OC` (stereo unspecified), the remaining at 0.5 h in [7] is less than 5%.

For the molecule `COc1ccc(S(=O)(=O)N(Nc2ccccc2)C(=O)Oc2ccccc2OC)cc1`, the values for the IC50 (at Prostaglandin E synthase; in series [3]; in [4]) were 690 nM, greater than 1000 nM and greater than 1000 nM, respectively. Further, the inhibition in [5] was 63%. In addition, in the series listed under Mus musculus, the Activity is greater than 10 µM.
